Positions of bridges follow the written chain, without caps; N, C: chain ends. Non-standard residues stand in square brackets, D forms with d. Residues, ends and D or L forms follow the SMILES beside them. *: point of attachment. 5FAM = O=C1OC2(c3ccc(O)cc3Oc3cc(O)ccc32)c2ccc(C(=O)*)cc21; βAla = NCCC(=O)O
Assays:
wild-type TmrAB = experiment: Nucleotide occlusion, wild-type TmrAB; format: biochemical, Thermus thermophilus; conditions: 5 min 45°C; for Effect on nucleotide occlusion, wild-type TmrAB: CP^F 4 µM; for Occluded nucleotides, ADP / Occluded nucleotides, ATP: TmrAB 2 µM, CP^F 4 µM or orthovanadate 1 mM, ATP 1 mM traced with [α32P]-ATP, normalized to vanadate-trapped state
Experimental: Figure 5. […] (A, B) CP6^F (A) or CP13^F (B, 50 nM each) were incubated with increasing concentrations of detergent-solubilized inward-facing TmrAB (in the absence of Mg-ATP) or outward-facing TmrA^EQB, which was trapped with Mg-ATP (1 mM) for 5 min at 45°C as described ([Hofmann et al., 2019]; [Stefan et al., 2020]). Immediately after, the fluorescence anisotropy was assayed at λex/em = 485/520 nm. The difference in fluorescence polarization was normalized to free and fully bound CP^F. Data were fitted by a one-site binding model. […] TmrAB (2 µM each) were mixed with CP^Fs (4 µM), ATP (1 mM, traced with [α^32P]-ATP), and MgCl2 (5 mM) for 5 min at 4°C or 45°C. Cold ATP (10 mM) was added, and freely exchangeable nucleotides were removed by rapid gel filtration. Occluded nucleotides were analyzed by thin layer chromatography and autoradiography. Representative radiograms for independent triplicates are shown. (D) Stably occluded nucleotides, [α^32P]-ATP and [α^32P]-ADP, were quantified by autoradiography. Data were normalized to the vanadate-trapped state. In (A, B, D), mean values ± SD (n = 3) are shown. Figure 5—source data 1. Source Data for Figure 5. Figure 5—figure supplement 1. […] (A) CP^Fs (50 nM each) were incubated with increasing concentrations of detergent-solubilized IF TmrAB in the inward-facing (IF) conformation (absence of Mg-ATP) or TmrA^EQB populated in the outward-facing (OF) conformation, which was trapped in the OF conformation by Mg-ATP (1 mM) after 5 min incubation at 45°C. The difference in fluorescence polarization was normalized to unbound (0%) and 100% bound CP^F. Data were fitted by a one-site binding model. Fluorescence anisotropy was recorded at λex/em = 485/520 nm. […] TmrA^EQB (2 µM) were incubated in the absence and presence of CP^Fs (4 µM each), ATP (1 mM, traced with [α^32P]-ATP), and MgCl2 (5 mM) for 5 min at 4°C or 45°C. Cold ATP (10 mM) was added, and free nucleotides were removed by rapid gel filtration. Occluded nucleotides were analyzed by thin layer chromatography and autoradiography. Representative radiograms for independent triplicates are shown. […] Figure 5—figure supplement 1—source data 1.
We also examined the impact of CP^Fs on the IF-to-OF transition of wild-type TmrAB induced by ATP binding through nucleotide occlusion (stable trapping) as the readout. We induced the IF-to-OF switch with radiotraced [α^32P]-ATP for 5 min at 45°C in the presence and absence of CPs and removed unbound nucleotides by rapid gel filtration. Subsequently, the occluded nucleotides were identified and quantified by thin layer chromatography and autoradiography (Figure 5C, D).
Detergent-solubilized TmrAB (2 µM) were incubated with ATP (1 mM) traced with [α^32P]-ATP (Hartmann Analytic), MgCl2 (5 mM), CP^Fs (4 µM), or orthovanadate (1 mM) for 5 min at 45°C. Cold ATP (10 mM) was added, and unbound nucleotides were removed by rapid gel filtration (Bio-Spin columns P-30, Bio-Rad). ATP (10 mM) was added, and samples were spotted onto polyethyleneimine cellulose plates (Merck Millipore). Thin-layer chromatography was performed using 0.75 M KH2PO4 pH 3.4.

TmrAB = experiment: ATP binding by scintillation proximity assay (SPA); set-up: species or system Thermus thermophilus; conditions: CP^B 1 µM; for Effect on ATP binding to TmrAB: SPA; for Signal, ATP binding: TmrAB 0.2 µM on SPA beads, ATP 3 µM traced with 3H-ATP, 30 min on ice, without CP 5.06; for Signal, Background: after release of TmrAB from beads with imidazole 200 mM
Description: To elucidate the mechanistic basis for the inhibition of ATP hydrolysis and substrate transport, we investigated the effects of CPs on substrate binding. In the first approach, fluorescent CP^Fs were used as reporters in fluorescence polarization. […] In addition, we examined the impact of CP^Bs on ATP binding to TmrAB by scintillation proximity assays (SPA) (Figure 4C). […] Taken together, CPs are high-affinity allosteric inhibitors of TmrAB that leave ATP binding and substrate interaction largely unaffected, while impairing ATP hydrolysis and substrate translocation across the membrane.
Figure 4. […] (A) CP^Fs binding TmrAB is not affected by substrate peptide binding. […] For competition, C4^ATTO655 peptide (2 µM) or R9LQK peptide (200 µM) were added. (B) Binding of C4F peptide is not affected by CP^Bs. C4F peptides (50 nM) were mixed with TmrAB (4 µM), and fluorescence anisotropy was monitored as described in (A). For competition, C4^ATTO655 (10 µM) or CP^Bs (6 µM) were added. […] TmrAB (0.2 µM) were immobilized on SPA beads and incubated with ATP (3 μM, traced with ^3H-ATP) in the presence and absence of CP^Bs (1 µM each) for 30 min on ice. ATP binding was monitored by SPA. Background values were determined after releasing TmrAB complexes from the beads by adding imidazole (200 mM). The background signal in the absence of CP^Bs was set to 0 cpm. […] As this is an equilibrium experiment, this can be rationalized by the fact that CP13 stabilizes the ATP-bound OF conformer. Figure 4—source data 1. Source data for Figure 4.
DDM-solubilized TmrAB (0.2 µM) was incubated with ATP (2.8 μM), [2,5’,8-^3H(N)]-ATP (0.2 µM, ^3H-ATP, PerkinElmer), MgCl2 (3 mM), and CP^Bs (1 µM) for 30 min on ice. Copper-chelated SPA beads (PerkinElmer) were added to a final concentration of 5 mg/ml. Total binding was determined at 20°C in cpm mode (Wallac MicroBeta). Bound TmrAB complexes were eluted by adding 200 mM of imidazole, and background binding was determined. Data represent mean ± SD from three experiments.

Row | SMILES | Effect on nucleotide occlusion, wild-type TmrAB (wild-type TmrAB) | Occluded nucleotides, ADP (wild-type TmrAB) | Occluded nucleotides, ATP (wild-type TmrAB) | Effect on ATP binding to TmrAB (TmrAB) | Signal, ATP binding (TmrAB) | Signal, Background (TmrAB) | Effect on ATP binding to TmrAB (TmrAB; listed as CP13^B)
1 | CC[C@H](C)[C@@H]1NC(=O)[C@H]([C@@H](C)O)NC(=O)[C@H](CC(C)C)NC(=O)[C@H](Cc2c[nH]c3ccccc23)NC(=O)[C@H](Cc2ccccc2)NC(=O)[C@H](CC(N)=O)NC(=O)[C@H](CCC(=O)O)NC(=O)[C@H](CC(C)C)NC(=O)[C@H](CS)NC(=O)[C@H](Cc2c[nH]cn2)NC(=O)[C@H](CO)NC(=O)[C@@H](Cc2ccc(O)cc2)NC(=O)CSC[C@@H](C(=O)NCC(=O)N[C@@H](CO)C(=O)NCCC(=O)NCCC(=O)N[C@@H](CCCNC(=N)N)C(=O)N[C@@H](CCCCNC(=O)c2ccc3c(c2)C(=O)OC32c3ccc(O)cc3Oc3cc(O)ccc32)C(N)=O)NC(=O)[C@H](CC(C)C)NC1=O [CP6] ({CH2CO}-[dY]SHCLENFWLTILCGS[βAla][βAla]RK(5FAM)-NH2; thioether N-14) | nucleotide occlusion was completely abolished | 2.66% | 6.76% | only minor effects on ATP binding | 4.22 cpm*10^3 | -0.04 cpm*10^3 | –
2 | CC(C)C[C@@H]1NC(=O)[C@H](Cc2ccccc2)NC(=O)CNC(=O)[C@H](CO)NC(=O)[C@H](Cc2ccccc2)NC(=O)[C@H](CC(=O)O)NC(=O)[C@@H]2CCCN2C(=O)[C@H]([C@@H](C)O)NC(=O)[C@@H](Cc2ccc(O)cc2)NC(=O)CSC[C@@H](C(=O)NCC(=O)N[C@@H](CO)C(=O)NCCC(=O)NCCC(=O)N[C@@H](CCCNC(=N)N)C(=O)N[C@@H](CCCCNC(=O)c2ccc3c(c2)C(=O)OC32c3ccc(O)cc3Oc3cc(O)ccc32)C(N)=O)NC(=O)[C@H](C)NC(=O)[C@H](CC(N)=O)NC(=O)[C@H](CCCNC(=N)N)NC(=O)[C@H](CC(C)C)NC(=O)[C@H](Cc2ccccc2)NC(=O)[C@H](C)NC1=O [CP12] ({CH2CO}-[dY]TPDFSGFLAFLRNACGS[βAla][βAla]RK(5FAM)-NH2; thioether N-16) | nucleotide occlusion was completely abolished | 3.67% | 7.52% | no effect on ATP binding | 5.02 cpm*10^3 | 0.08 cpm*10^3 | –
3 | CC[C@H](C)[C@@H]1NC(=O)[C@H](Cc2c[nH]c3ccccc23)NC(=O)[C@H](CC(N)=O)NC(=O)[C@H](C)NC(=O)[C@H](CO)NC(=O)[C@@H]2CCCN2C(=O)[C@H](CC(=O)O)NC(=O)[C@@H](Cc2ccc(O)cc2)NC(=O)CSC[C@@H](C(=O)NCC(=O)N[C@@H](CO)C(=O)NCCC(=O)NCCC(=O)N[C@@H](CCCNC(=N)N)C(=O)N[C@@H](CCCCNC(=O)c2ccc3c(c2)C(=O)OC32c3ccc(O)cc3Oc3cc(O)ccc32)C(N)=O)NC(=O)[C@H]([C@@H](C)O)NC(=O)[C@H](CC(C)C)NC(=O)[C@H](CC(C)C)NC(=O)[C@H](C(C)C)NC(=O)[C@H](CC(C)C)NC1=O [CP13] ({CH2CO}-[dY]DPSANWILVLLTCGS[βAla][βAla]RK(5FAM)-NH2; thioether N-14; C-terminus assumed) | promoted stable ATP occlusion | 10.47% | 55.84% | value of bound ATP exceeds the control without CPs | 6.33 cpm*10^3 | 0.19 cpm*10^3 | only minor effects on ATP binding
4 | CC(C)[C@@H]1NC(=O)[C@H](Cc2ccccc2)NC(=O)[C@@H]2CCCN2C(=O)[C@H](CC(N)=O)NC(=O)[C@H](Cc2c[nH]c3ccccc23)NC(=O)[C@H](C(C)C)NC(=O)[C@H](Cc2ccc(O)cc2)NC(=O)[C@H](Cc2ccccc2)NC(=O)[C@@H](Cc2ccc(O)cc2)NC(=O)CSC[C@@H](C(=O)NCC(=O)N[C@@H](CO)C(=O)NCCC(=O)NCCC(=O)N[C@@H](CCCNC(=N)N)C(=O)N[C@@H](CCCCNC(=O)c2ccc3c(c2)C(=O)OC32c3ccc(O)cc3Oc3cc(O)ccc32)C(N)=O)NC(=O)[C@H](CCCCN)NC(=O)[C@H](Cc2ccccc2)NC1=O [CP14] ({CH2CO}-[dY]FYVWNPFVFKCGS[βAla][βAla]RK(5FAM)-NH2; thioether N-12; C-terminus assumed) | promoted stable ATP occlusion | 8.19% | 88.51% | no effect on ATP binding | 5.10 cpm*10^3 | 0.08 cpm*10^3 | –

— publication PMC8116058, “De novo macrocyclic peptides dissect energy coupling of a heterodimeric ABC transporter by multimode allosteric inhibition” (eLife, 2021)
